# Measured values reported in patent US9061030B2, “sGC stimulators” (IRONWOOD PHARMACEUTICALS, INC., priority 2010, dated 2015).
# Biological target: T1, soluble guanylate cyclase (sGC) (Homo sapiens, UniProt Q02108+Q02153)
# T1 construct: endogenously expressing soluble guanylate cyclase (sGC); endogenous in cells; host or cells: HEK293
# T1 sequence (Q02153 1-619): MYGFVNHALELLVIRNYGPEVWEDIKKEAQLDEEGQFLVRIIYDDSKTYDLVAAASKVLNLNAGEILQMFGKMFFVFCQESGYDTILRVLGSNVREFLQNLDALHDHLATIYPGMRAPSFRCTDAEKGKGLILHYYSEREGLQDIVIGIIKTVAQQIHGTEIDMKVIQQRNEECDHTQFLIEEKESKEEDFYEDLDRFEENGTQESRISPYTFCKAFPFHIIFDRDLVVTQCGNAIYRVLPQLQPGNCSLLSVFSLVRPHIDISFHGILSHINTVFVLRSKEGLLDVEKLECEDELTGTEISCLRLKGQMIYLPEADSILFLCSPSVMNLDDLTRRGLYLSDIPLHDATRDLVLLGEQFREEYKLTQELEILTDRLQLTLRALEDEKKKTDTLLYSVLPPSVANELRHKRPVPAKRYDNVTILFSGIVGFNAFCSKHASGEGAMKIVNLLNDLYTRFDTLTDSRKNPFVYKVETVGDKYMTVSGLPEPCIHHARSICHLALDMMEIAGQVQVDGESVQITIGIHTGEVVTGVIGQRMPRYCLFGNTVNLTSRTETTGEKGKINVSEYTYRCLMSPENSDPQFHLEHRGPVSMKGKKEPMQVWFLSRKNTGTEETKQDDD
# T1 sequence (Q02108 1-690): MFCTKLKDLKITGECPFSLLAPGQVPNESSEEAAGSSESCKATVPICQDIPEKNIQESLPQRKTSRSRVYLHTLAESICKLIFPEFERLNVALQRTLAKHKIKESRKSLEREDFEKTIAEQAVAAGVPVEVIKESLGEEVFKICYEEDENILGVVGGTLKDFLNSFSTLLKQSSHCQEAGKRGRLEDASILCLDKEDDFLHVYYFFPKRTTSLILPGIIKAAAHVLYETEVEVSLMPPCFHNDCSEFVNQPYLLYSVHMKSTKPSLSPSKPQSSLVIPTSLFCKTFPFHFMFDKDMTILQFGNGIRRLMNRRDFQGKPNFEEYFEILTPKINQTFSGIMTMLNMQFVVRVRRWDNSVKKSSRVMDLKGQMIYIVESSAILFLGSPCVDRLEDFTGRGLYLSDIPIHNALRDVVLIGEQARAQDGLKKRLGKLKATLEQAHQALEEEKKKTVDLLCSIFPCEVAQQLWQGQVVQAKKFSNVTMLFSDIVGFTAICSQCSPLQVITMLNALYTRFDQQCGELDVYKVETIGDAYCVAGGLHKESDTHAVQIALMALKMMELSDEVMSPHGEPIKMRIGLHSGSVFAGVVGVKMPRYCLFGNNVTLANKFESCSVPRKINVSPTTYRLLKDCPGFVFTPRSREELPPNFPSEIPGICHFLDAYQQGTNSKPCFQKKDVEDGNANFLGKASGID
# Assay: sGC-HEK-cGMP assay
# Assay type: cell-based
# Conditions: HEK293 cells, 10 μM SNP, percentage of sGC activity obtained with positive control BAY 41-2272 (= 100%); for Emax at 10 µM: compound at 10 μM; for Emax at 30 µM: compound at 30 μM
# Procedure, shortened: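 HEK293 cells endogenously expressing sGC, preincubated 15 min at 37 °C with 0.5 mM IBMX, then exposed to compound plus 10 μM sodium nitroprusside for 10 min at 37 °C. Reaction stopped and cells lysed with 0.1 M HCl; cGMP quantified by LC/MS against a standard curve; EC50 from concentration-response curves.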
Compound,Emax at 10 µM [%],Emax at 30 µM [%]
Fc1ccccc1Cn1nc(-c2ccccn2)nc1-c1ccccn1 [Compound I-1],5 to 10,20 to 40
Fc1ccccc1Cn1nc(-c2ncccn2)nc1-c1cscn1 [Compound I-3],0 to 5,20 to 40
Fc1ccccc1Cn1nc(-c2ccccn2)nc1-c1cscn1 [Compound I-4],20 to 40,40 to 60
Fc1ccccc1Cn1nc(-c2ccccn2)nc1-c1ncco1 [Compound I-6],20 to 40,20 to 40
"Fc1ccccc1Cn1nc(-c2ccccn2)nc1-c1cocn1 [Compound I-12, 4-(1-(2-fluorobenzyl)-3-(pyridin-2-yl)-1H-1,2,4-triazol-5-yl)oxazole]",20 to 40,40 to 60
Fc1ccccc1Cn1nc(-c2ccccn2)nc1-c1nccs1 [Compound I-25],20 to 40,40 to 60
Fc1ccccc1Cn1nc(-c2ncccn2)nc1-c1nccs1 [Compound I-30],10 to 20,20 to 40
Fc1ccc(-c2nc(-c3nccs3)n(Cc3ccccc3F)n2)nc1 [Compound I-38],40 to 60,20 to 40
Fc1ccccc1Cn1nc(-c2cscn2)nc1-c1nccs1 [Compound I-40],20 to 40,10 to 20
Fc1ccccc1Cn1nc(-c2nccs2)nc1-c1cscn1 [Compound I-41],40 to 60,60 to 80
Nc1ccnc(-c2nc(-c3nccs3)n(Cc3ccccc3F)n2)c1 [Compound I-44],40 to 60,60 to 80
Fc1ccccc1Cn1nc(-c2ncccn2)nc1-c1cocn1 [Compound I-46],20 to 40,20 to 40
"Nc1ccnc(-c2nc(-c3nccs3)n(Cc3ccccc3F)n2)n1 [Compound I-48, 2-(1-(2-fluorobenzyl)-5-(thiazol-2-yl)-1H-1,2,4-triazol-3-yl)pyrimidin-4-amine]",40 to 60,60 to 80
"Fc1ccccc1Cn1nc(-c2ccccn2)nc1-n1cncn1 [Compound I-50, 2′-(2-fluorobenzyl)-5′-(pyridin-2-yl)-2′H-1,3′-bi(1′,2′,4-triazole)]",20 to 40,20 to 40
"Nc1ccnc(-c2nc(-c3cscn3)n(Cc3ccccc3F)n2)c1 [Compound I-53, 2-(1-(2-fluorobenzyl)-5-(thiazol-4-yl)-1H-1,2,4-triazol-3-yl)pyridin-4-amine]",40 to 60,60 to 80
"COC(=O)N(C)c1c(N)nc(-c2nc(-c3nccs3)n(Cc3ccccc3F)n2)nc1N [Compound I-61, methyl 4,6-diamino-2-(1-(2-fluorobenzyl)-5-(thiazol-2-yl)-1H-1,2,4-triazol-3-yl)pyrimidin-5-yl(methyl)carbamate]",20 to 40,40 to 60
